{"source": "patent US6372297B1", "about": "“Wood preservative oxathiazines” (Uniroyal Chemical Company, Inc., priority 1993, dated 2002)", "assay_type_in_all_cases": "cell-based", "key": {"Penicillium islandicum": {"tested_on": "Penicillium islandicum", "assay": "Wood preservative efficacy against fungi, agar plate colony diameter", "parameters": "key: 1 = 25%, 2 = 50%, 3 = 75%, 4 = 100% of untreated fungal growth", "settings": "10 ppm, Table 6B", "protocol": "(§1) The compounds shown in Table 1 were dissolved in 50% ethanol and then diluted with sterile water to give the required concentrations of 1 and 10 ppm in the test agar plates. Malt extract sugar (3%) was added aseptically and uniform distribution was obtained by shaking. Each plate was inoculated with a spore suspension or with a small piece of agar (1 mm) from the margin of an actively growing colony of the test fungus. The fungi employed are listed below. After incubation at 22° C. and 70% relative humidity during a period long enough to allow significant growth of untreated controls, the diameters of the fungus colonies were measured and scored using the following rating system:\n(§2) 1=25% of fungal growth compared to untreated\n(§3) 2=50% of fungal growth compared to untreated\n(§4) 3=75% of fungal growth compared to untreated\n(§5) 4=Growth equal to that of untreated\n(§6) In these Tables, the lower numbers are the most preferred species."}, "Pseudomonas alcaligenes": {"tested_on": "Pseudomonas alcaligenes", "assay": "Wood preservative efficacy against bacteria and yeasts, tryptose agar plates", "parameters": "key: 0 = growth equal to control, 1 = inhibition, 2 = no growth", "settings": "100 ppm in tryptose agar", "procedure,_shortened": "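Compounds dissolved in 50% ethanol, diluted with sterile water and incorporated into tryptose agar, then inoculated with Pseudomonas alcaligenes. Once untreated cultures grew, scored 0 (growth as control), 1 (inhibited growth) or 2 (no growth).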"}, "Mucor sp.": {"tested_on": "Mucor sp.", "assay": "Wood preservative efficacy against fungi, agar plate colony diameter", "settings": "Table 6B", "protocol": "(§7) Each plate was inoculated with a spore suspension or with a small piece of agar (1 mm) from the margin of an actively growing colony of the test fungus. The fungi employed are listed below. After incubation at 22° C. and 70% relative humidity during a period long enough to allow significant growth of untreated controls, the diameters of the fungus colonies were measured and scored using the following rating system: 0=free of fungal growth 1=25% of fungal growth compared to untreated 2=50% of fungal growth compared to untreated 3=75% of fungal growth compared to untreated 4=Growth equal to that of untreated The scores measured for wood preservation efficacy of the compounds of this invention are listed in Tables 6a and 6b. In these Tables, the lower numbers are the most preferred species. Mucor sp."}, "Coniophora puteana": {"tested_on": "Coniophora puteana", "assay": "Wood preservative efficacy against fungi, agar plate colony diameter", "parameters": "key: 0 = no fungal growth, 1-3 = 25/50/75% of untreated, 4 = equal", "settings": "Table 6B", "protocol": "as §7, with “Coniophora puteana (syn. C. cerebella)” for “Mucor sp.”"}, "Aureobasidium pullulans": {"tested_on": "Aureobasidium pullulans", "assay": "Wood preservative efficacy against fungi, agar plate colony diameter", "parameters": "key: 1=25%, 2=50%, 3=75%, 4=100% of untreated growth; lower better", "settings": "10 ppm, Table 6B", "protocol": "as §1, §2, §3, §4, §5, §6"}, "Coriolus versicolor": {"tested_on": "Coriolus versicolor", "assay": "Wood preservative efficacy against fungi, agar plate colony diameter", "settings": "Table 6B", "protocol": "as §7, with “Coriolus versicolor” for “Mucor sp.”"}, "Flavobacterium sp.": {"tested_on": "Flavobacterium sp.", "assay": "Wood preservative efficacy against bacteria and yeasts, tryptose agar plates", "parameters": "key: 0 = growth equal to control, 1 = growth inhibited, 2 = no growth", "procedure,_shortened": "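Compounds dissolved in 50% ethanol, diluted with sterile water, incorporated into tryptose agar then inoculated with Flavobacterium sp. Once untreated controls grew sufficiently, scored 0 (growth as control), 1 (inhibition) or 2 (no growth).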"}, "Bacillus cereus mycoides": {"tested_on": "Bacillus cereus mycoides", "parameters": "scale not given here"}, "Chaetomium globosum": {"tested_on": "Chaetomium globosum", "assay": "Wood preservative efficacy against fungi, agar plate colony diameter", "settings": "10 ppm, Table 6B", "protocol": "as §7, with “Chaetomium globosum” for “Mucor sp.”"}, "Trichoderma viride": {"tested_on": "Trichoderma viride", "assay": "Wood preservative efficacy against fungi, agar plate colony diameter", "settings": "10 ppm, Table 6B", "protocol": "as §7, with “Trichoderma viride” for “Mucor sp.”"}}, "note": "Like-named read-outs stand apart in the source and are kept apart here.", "data": [{"smiles": "C[S+]1CCON=C1c1ccc(C(F)(F)F)cc1", "note": "(stereo not drawn) [Compound 25]", "values": [{"measurement": "Score of fungicidal activity, P. ISLANDICUM", "setting": "Penicillium islandicum", "result": "1 (25% of growth compared to untreated control)"}, {"measurement": "Score of bactericidal activity, P. alcalgenes", "setting": "Pseudomonas alcaligenes", "result": 1}, {"measurement": "Score of fungicidal activity, MUCOR SP", "setting": "Mucor sp.; 10 ppm", "result": "3 (75% of growth compared to untreated control)"}, {"measurement": "Score of fungicidal activity, MUCOR SP", "setting": "Mucor sp.; 100 ppm", "result": 0}, {"measurement": "Score of fungicidal activity, C. PUTEANA", "setting": "Coniophora puteana; 1 ppm", "result": "2 (50% of growth compared to untreated control)"}, {"measurement": "Score of fungicidal activity, C. PUTEANA", "setting": "Coniophora puteana; 10 ppm", "result": 0}, {"measurement": "Score of fungicidal activity, A. PULLULANS", "setting": "Aureobasidium pullulans", "result": "3 (75% of growth compared to untreated control)"}, {"measurement": "Score of fungicidal activity, G. VERSICLOR", "setting": "Coriolus versicolor; 1 ppm", "result": "3 (75% of growth compared to untreated control)"}, {"measurement": "Score of fungicidal activity, G. VERSICLOR", "setting": "Coriolus versicolor; 10 ppm", "result": 0}, {"measurement": "Score of bactericidal activity, Flavobacter", "setting": "Flavobacterium sp.; 10 ppm in tryptose agar", "result": 1}, {"measurement": "Score of bactericidal activity, Flavobacter", "setting": "Flavobacterium sp.; 100 ppm in tryptose agar", "result": 2}, {"measurement": "Score of bactericidal activity, B. cereus mycoides", "setting": "Bacillus cereus mycoides; 10 ppm in tryptose agar", "result": 2}, {"measurement": "Score of bactericidal activity, B. cereus mycoides", "setting": "Bacillus cereus mycoides; 100 ppm in tryptose agar", "result": 2}, {"measurement": "Score of fungicidal activity, C. GLOBOSUM", "setting": "Chaetomium globosum", "result": "3 (75% of growth compared to untreated control)"}, {"measurement": "Score of fungicidal activity, T. VIRIDE", "setting": "Trichoderma viride", "result": "2 (50% of growth compared to untreated control)"}]}]}
